Measurements taken from US20220281902A1, “MIT[…] IMPROVE METABOLIC SYNDROME DURING AGING” (The Board of Trustees of the Leland Stanford Junior …, priority 2019, published 2022).

Key:
[1] = Long-term oral administration in drinking water, tolerability; type: in vivo, C57BL/6 mice
Protocol: (§1) Animal experimentation. Male C57BL/6 mice (Shanghai SLAC Laboratory animal Co. Ltd) were group-housed in a barrier facility with 12-hr light/12-hr dark cycles. All mice received a regular chow diet ad libitum (PicoLab 5053 Rodent Diet 20; Lab Diets) except for HFD (40-60%) and CR models. The compound was then administered in drinking water ad libitum at either 90-100 or 100-120 mg/kg/day, based on the previously measured water consumption.
The C57BL/6 mice were maintained on a standard purified mouse diet (PicoLab 5053 Rodent Diet 20; Lab Diets) until they reached 2 months of age when the treatments started. […] Body weights were measured weekly at the same time each week. Food and water intake were measured once every month for 3-6 consecutive days at the same time each month. Water consumption was measured for 2 weeks prior to the start of administration. Compound was generated and modified for better permeability in to mitochondria, evaluated by HPLC, was 96%-97%. […] Aliquots were collected from each batch and measured by HPLC to confirm stability of the compound. […] Rectal body temperature was measured monthly, as described previously. Whole blood samples, and histopathology were analyzed after 14 months of treatment. […]

[2] = Body weight variations on chow diet; type: in vivo, C57BL/6 mice; settings: for body weight lighter than controls: male mice
Protocol: as §1, with “Male C57BL/6 mice (Shanghai SLAC Laboratory animal Co.” left out
The C57BL/6 mice were maintained on a standard purified mouse diet (PicoLab 5053 Rodent Diet 20; Lab Diets) until they reached 2 months of age when the treatments started. The CR animals were subjected to a lifelong restriction on PicoLab 5053 Rodent Diet 20; Lab Diets, starting at 12 weeks of age, with a daily food allotment of 60% of that eaten by the ad lib animals. Besides CR animals, the C57BL/6 groups in this study were fed the standard high fat diet (HFD; 60 or 40% fat). Body weights were measured weekly at the same time each week. Food and water intake were measured once every month for 3-6 consecutive days at the same time each month. Water consumption was measured for 2 weeks prior to the start of administration. Compound was generated and modified for better permeability in to mitochondria, evaluated by HPLC, was 96%-97%. The administration began at 8 weeks of age and continued for 16 months, until they became 18-month-old. The drug solution was prepared weekly in small batches by dissolving the compound into autoclaved water at the respective doses and filtering sterilely. Aliquots were collected from each batch and measured by HPLC to confirm stability of the compound. Water bottles and cages were changed twice weekly. Fed and fasted blood samples were collected monthly at the same time each month from tail and used for glucose, insulin, blood cell counts, lipid analysis using assay kits (Robio, China) and HbA1C assay kit (Crystal chem, USA) following the manufacturer protocol. IPGTTs and ITTs were conducted throughout morning and early afternoon after fasting for 16-18 hrs. and 4 hrs., respectively, once before start of treatment administration began and every 3 months thereafter. Rectal body temperature was measured monthly, as described previously. Whole blood samples, and histopathology were analyzed after 14 months of treatment. Tissue samples were collected after 10-14 months from mice, sacrificed and used for WB and qPCR microarray, and other analyses. All animal studies were approved by the Shanghai Jiao Tong University Animal Studies Committee and were in accordance with NIH guidelines. (Number of mice; SD=30, HFD=10, CR=20).

[3] = DEXA body composition analysis and fat depot analysis; type: in vivo; settings: 14 month old mice
[4] = tested on: UCP1, UCP2, CIDEA, Cox8b transcripts; assay: qPCR of thermoregulatory factors and beiging inducers; type: in vivo, mouse; settings: brown fat, after 14 months of treatment
Protocol: (§2) Gene expression & RT qPCR Analyses. Total RNA was isolated using a commercially available kit (OMEGA bio-tek, R6812-02) according to the manufacturer's instructions. cDNA was generated using the PrimeScript RT reagent kit (TAKARA, RR047A). Gene expression were determined by qPCR as described in the product manual. The analysis was evaluated by Bio-Rad Real-Time System (CFX Connect™).
(§3) RNAs from 10 mice (5 treated and 5 Ctrl.) VF fat or livers were isolated by using omega Bio-Tek reagents, and cDNA was transcribed by (TAKARA). qPCR was then performed by using iQ SYBR Green mastermix bioscience on a CFX96 Real-Time System/C1000 Thermal Cycler (Bio-Rad).

[5] = tested on: visceral fat adipocytes; assay: Histological analysis of white adipocyte size in visceral fat (toluidine blue O); type: in vivo, mouse
Protocol: Fluorescent microscopy. Adipose tissue was harvested and fixed in 4% paraformaldehyde (SigmaP6148). Adipocyte size was measured by staining for toluidine blue O in 5-20 μm-thick sections, paraffin embedded (Cell Signalling Technology, Tissue-Tek O.C.T.). adipocyte differentiations assessed by Oil Red 0 staining.

[6] = tested on: ASC1, Wdnm1-like, FGF-21, PGC-1α transcripts; assay: qPCR of adipogenesis regulators and white fat inducing transcripts in visceral fat; type: in vivo, mouse
Protocol: as §2, §3

[7] = tested on: 3T3-L1 pre-adipocytes; assay: In vitro adipocyte differentiation (Oil Red O, protein blotting); type: cell-based
[8] = tested on: AMPK, FOXO1, SIRT3; assay: qPCR and immunoblotting of hepatic glucose metabolism and longevity markers; type: in vivo, mouse
Protocol: Immunoblotting analyses. Western blot analyses carried out in mouse livers, heart and adipose tissues collected from aged mice after treatments. Proteins (40 μg) were separated by electrophoresis on a sodium dodecyl sulfate (SDS) 4-20% polyacrylamide gel under reducing conditions. Membranes (Amersham Hybond PVDF, Germany) were probed overnight at 4° C. using Total OX-OPHOS Rodent cocktail (ab110413, USA), Complex IV, AMPK γ1, PGC-1α and Pparγ, FOXO1, TNF-α, IL-6 (USA, abCAM) and then incubated with polyclonal Goat anti-mouse IgG H&R (1:2000, ab6789, USA) in blocking buffer for 2 h at room temperature. To assure equal loading and/or to normalize protein content, the membrane blots were incubated with mouse anti-β-actin monoclonal antibody (mAbcam8227). Proteins were visualized using a chemiluminescence ECL Western blotting detection reagent (Bio-rad, USA). Quantification of protein was performed by chemiluminescence blot scanning (Quantity One™ version 4.6.3. Bio Rad).
as §2, §3

[9] = liver, 14 months treatment (FIG. 6A)

## Cc1ncsc1CCOC(=O)C[P+](c1ccccc1)(c1ccccc1)c1ccccc1.[Br-] [HG1a-1, (2-(2-(4-Methylthiazol-5-yl)Ethoxy)-2-Oxoethyl) Triphenylphosphonium Bromide]
[1]; 18 month long treatment
  tolerability of long-term regulated mitochondrial inhibition: well-tolerated without any deleterious effect
[1]; oral, 18-20 months
  mortality due to oral administration: no mice died
[2]; female mice, by 9 months
  body weight decrease vs controls: 26%
[2]; female mice, end of 5 months
  body weight less than controls: 12%
[2]; after 14 months treatment
  body weight lighter than controls: 25%
[2]; end of 5 months
  body weight lighter than controls: 18%
[3]
  gonadal adipose mass: valid reduction
  sub-scapular brown adipose mass: minor effect
[3]; DEXA
  body fat mass: recognizable decrease
  lean mass: trivial changes
[4]
  CIDEA expression amplified: one-fold
  Cox8b expression amplified: 7 fold
  UCP2 expression amplified: > one-fold
  UPC1 expression increase: 20 fold
[5]; 5 month old treated mice
  visceral fat adipocyte size and cell perimeter: minor changes
[5]; 12 month old treated mice
  adipocyte shrinkage in size and perimeter compared to control: 3 fold
[6]; 14 months of treatment
  ASC1 transcript decrease vs control: > 9 fold
  FGF-21 transcript: remained unchanged
  Wdnm1-like transcript decrease vs control: 30 fold
[6]; aged mice
  PGC-1α transcript: increased
[7]; 3T3-L1, up to 14 days
  adipocyte differentiation: poorly differentiated, immature adipocytes
[7]; 3T3-L1 cells
  protein abundance of Pparγ: significant reduction
[8]; [9]
  APMK amplified: 5 fold
  FOXO1 amplified: 3 fold
  SIRT3 amplified: one-fold
[8]; livers of treated mice
  enhanced deacetylation of FoxO-1: 3 fold
  relative levels of phosphorylated AMPK increased: 5 fold
[8]; treated group (FIG. 6A)
  SIRT-3 level: marked upgrade
